The values below come from patent US20070232657A1, “NOVEL COMPOUNDS” (GLAXO GROUP LIMITED, priority 2006, published 2007).

Test [1] deals with longitudinal muscle strips from the rat gastric forestomach. Description: Rat isolated forestomach assay (EFS-evoked contractions). Here is the method:
Rat Isolated Forestomach Assay
Longitudinal muscle strips with mucosa partially removed were,obtained from the rat gastric forestomach, and suspended under an initial “load” of 1 g for isometric recording between two platinum ring electrodes, in 5 or 10 ml tissue baths containing Krebs solution bubbled with 5% CO2/95% O2 and maintained at 37° C. Following an equilibration period of 30 min, during which time the tissues were flushed every 15 minutes with fresh Krebs solution, tissues were stimulated with electrical field stimulation (EFS) [50V for 10 ml bath, 25V for 5 ml bath, at 2.5 Hz 0.5 ms pulse duration, for 10 s, every 1 min]. The tissues were left stimulating for at least 30 min. After obtaining consistent responses to EFS, the test compound was added to the bathing solution, each dose left in contact for at least 10 minutes. The % potentiation of contractions to EFS were measured as the area of 4 maximum EFS contractions after addition of compound relative to the area of 4 maximum EFS contractions before addition of the lowest concentration of compound. Data are expressed as means standard error of the mean; n-values are per animal used.

Test [2] addresses 5HT2b (Homo sapiens, UniProt P41595). Description: 5HT2b antagonist activity (no method given).
The target in test [3] is T1, human 5-HT4a receptor (Homo sapiens, UniProt Q13639). The test is described as follows: Mammalian functional 5-HT4a agonist assay (HEK-293-MSR-II cells, FLIPR). Also noted: expressed in transfected cells; host or cells: HEK-293-MSR-II cells transduced with BacMam viruses. The test is classed as cell-based. On the procedure:
Mammalian Functional 5-HT4a Agonist Assay
Human embryonic kidney cells stably expressing the human macrophage scavenger receptor type II (HEK-293-MSR-II cells) were established in-house (Lysko PG et al., J Pharmacol Exp Ther. 289(3):1277-85). These cells were grown in humidified conditions in Minimum Essential Medium containing 10% fetal calf serum (FCS), 1× non-essential amino acids, 2 mM L-glutamine and 0.4 mg/ml geneticin at 37° C./5% CO2.
BacMam plasmid constructs for the production of viruses for expression in mammalian cells were generated as described (Condreay J P et al., Proc. Natl. Acad. Sci. 96:127-132, Ames R et al., Receptors Channels 10(3-4):117-24). […]
The next day 50 μl Fluo4am dye (at 6 μM in Tyrodes buffer containing 1.5 mM calcium chloride and 2.5mM probenicid) was added to each well and incubated at 37° C./5% CO2 for one hour. […] A Fluorimetric Imaging Plate Reader (FLIPR) was used to add the compounds to the cells (50 μl per well) and to determine peak fluorescence emitted per well over the whole assay period.

In test [4] the target is T1, human 5-HT4a receptor. The test is described as follows: Yeast functional 5-HT4a agonist assay. The format is cell-based. Set-up: expressed in transfected cells; host or cells: Saccharomyces cerevisiae strain MMY23 (expression cassette integrated at the ura3 locus). The conditions noted are these: n=9. From the text: Yeast Functional 5-HT4a Agonist Assay
Yeast (Saccharomyces cerevisiae) cells expressing the human 5-HT4a receptor were generated by integration of an expression cassette into the ura3 chromosomal locus of yeast strain MMY23. This cassette consisted of DNA sequence encoding the human 5-HT4a receptor flanked by the yeast glyceraldehyde-3-phosphate dehydrogenase (GPD) promoter to the 5′ end of 5-HT4a and a yeast transcriptional terminator sequence to the 3′ end of 5-HT4a. MMY23 expresses a yeast/mammalian chimeric G-protein alpha subunit in which the C-terminal 5 amino acids of Gpa1 are replaced with the C-terminal 5 amino acids of human Gil (as described in Brown et al. (2000), Yeast 16:11-22). Cells were grown at 30° C. in liquid Synthetic Complete (SC) yeast media (Guthrie and Fink (1991), Methods in Enzymology, Vol.194) lacking uracil, tryptophan, adenine and leucine to late logarithmic phase (approximately 6 OD600/ml).
Agonists were prepared as 10 mM stocks in DMSO. EC50 values (the concentration required to produce 50% maximal response) were estimated using serial dilutions of between 3- and 5-fold (BiomekFX, Beckman) into DMSO. pEC50 corresponds to negative log10 of molar EC50. […] After incubation at 30° C. for 24 hours, fluorescence resulting from degradation of FDGlu to fluorescein due to exoglucanase, an endogenous yeast enzyme produced during agonist-stimulated cell growth, was determined (excitation wavelength: 485 nm; emission wavelength: 535 nm) using a Spectrofluor (Tecan) or similar microtitre plate reader. Fluorescence was plotted against compound concentration and iteratively curve fitted using a four parameter fit to generate a concentration effect value. […]
Where Max[compound X] and Min[compound X] are the fitted maximum and minimum respectively from the concentration effect curve for compound X, and Max[5-HT] and Min[5-HT] are the fitted maximum and minimum respectively from the concentration effect curve for 5-hydroxytryptamine. Equieffective molar ratio (EMR) values were calculated from the equation: EMR=EC50 [compound X]/EC50 [5-HT] […]

T1 sequence (Q13639 1-387 isoform Q13639-2): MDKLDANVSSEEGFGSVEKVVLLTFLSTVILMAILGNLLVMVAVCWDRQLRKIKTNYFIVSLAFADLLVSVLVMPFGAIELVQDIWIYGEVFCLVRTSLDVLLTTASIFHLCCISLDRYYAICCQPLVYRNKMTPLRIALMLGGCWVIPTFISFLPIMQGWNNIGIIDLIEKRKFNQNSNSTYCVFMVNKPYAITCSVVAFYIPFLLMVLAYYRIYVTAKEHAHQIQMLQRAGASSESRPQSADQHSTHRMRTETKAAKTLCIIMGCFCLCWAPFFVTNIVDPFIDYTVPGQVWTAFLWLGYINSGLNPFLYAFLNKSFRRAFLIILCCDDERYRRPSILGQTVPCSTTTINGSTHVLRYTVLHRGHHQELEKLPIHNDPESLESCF
5HT2b, sequence (P41595 whole entry, species assumed): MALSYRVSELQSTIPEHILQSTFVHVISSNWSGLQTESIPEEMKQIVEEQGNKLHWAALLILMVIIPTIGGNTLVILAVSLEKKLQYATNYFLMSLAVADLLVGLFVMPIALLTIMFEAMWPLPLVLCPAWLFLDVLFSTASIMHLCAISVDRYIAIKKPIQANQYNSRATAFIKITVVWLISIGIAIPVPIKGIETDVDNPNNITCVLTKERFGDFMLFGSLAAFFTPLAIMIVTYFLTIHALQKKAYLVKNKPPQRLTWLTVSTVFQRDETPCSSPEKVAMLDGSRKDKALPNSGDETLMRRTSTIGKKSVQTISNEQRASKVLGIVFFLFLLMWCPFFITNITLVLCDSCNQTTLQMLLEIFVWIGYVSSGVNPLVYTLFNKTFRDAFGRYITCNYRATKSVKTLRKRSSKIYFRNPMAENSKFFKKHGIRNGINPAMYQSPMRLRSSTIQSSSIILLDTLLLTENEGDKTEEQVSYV

Turning to `Nc1c(Br)cc(C(=O)NCC2CCN(CC3CCOCC3)CC2)c2c1CCCO2` [(A), 5-amino-6-bromo-N-{[1-(tetrahydro-2H-pyran-4-ylmethyl)-4-piperidinyl]methyl}-3,4-dihydro-2H-chromene-8-carboxamide], in test [1] (in vitro, rat forestomach assay), the gastroprokinetic activity result is reported as “exhibits gastroprokinetic activity”. For the same compound, the 5HT2b antagonist activity entry in test [2] was “exhibit 5HT2b antagonist activity”.
A word on the Emax: it is the maximal effect, on the per cent scale that the assay sets. Consider `Cl.Nc1c(Br)cc(C(=O)NCC2CCN(CC3CCOCC3)CC2)c2c1CCCO2` [Example E1, 5-Amino-6-bromo-N-{[1-(tetrahydro-2H-pyran-4-ylmethyl)-4-piperidinyl]methyl}-3,4-dihydro-2H-chromene-8-carboxamide hydrochloride], for which the “% potentiation of contractions to EFS, Mean” value in test [1] (1 nM E1, n=5) is listed as 12.89%; in test [1] (10 nM E1, n=5), 50.62%; in test [1] (100 nM E1, n=5) it was 89.57%; in test [1] (1 μM E1, n=5) it was 115.46%; in test [1] (10 μM E1, n=5), 181.32%. Besides, the EC50 is 2.29 nM in test [3] (HEK-293-MSR-II cells, BacMam 5-HT4a + Gα16, n=12, read-out: mean pEC50 (converted)) and 0.501 nM in test [4] (yeast cells expressing human 5-HT4a, read-out: Mean pEC50 (converted)). In test [3] (relative to maximal effect of 5-HT, n=12), this compound gave a mean efficacy of 70%. Also, the “EMR (equieffective molar ratio, EC50 compound/EC50 5-HT)” value in test [4] (relative to 5-HT) turned out to be 0.281. The maximum response (Emax) in test [4] (relative to 5-hydroxytryptamine, read-out: Mean efficacy (Emax relative to 5-HT)) was found to be 94%.
